Ten compounds from PubChem BioAssay (NCI) can be followed below.

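In this assay, cells in 96-well plates receive the compound at five concentrations for 48 hours. Endpoints are linearly interpolated between the surrounding concentrations. Here, GI50 denotes the concentration required for 50% inhibition of growth. TGI: concentration producing complete growth inhibition.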

Among the test systems are BT-549 breast; CAKI-1 renal; HL-60(TB) leukemia; IGROV1 ovarian; MALME-3M melanoma; MDA-MB-435; NCI-H522 lung; SK-MEL-2 melanoma; SK-MEL-28 melanoma; UACC-62 melanoma.
Holding throughout (test): NCI anticancer screen, dose series, 48 h

For `Nc1ccc(-c2nc3ccccc3s2)cc1Br`, the TGI with BT-549 breast, in the assay on CAKI-1 renal, in the assay with HL-60(TB) leukemia, in the assay on IGROV1 ovarian, with MALME-3M melanoma and with MDA-MB-435 was greater than 100 µM throughout. Besides, the TGI in the assay on NCI-H522 lung, in the assay with SK-MEL-2 melanoma, with SK-MEL-28 melanoma and with UACC-62 melanoma was greater than 100 µM throughout.

Regarding `CN(C)c1ccc(/C=c2/c3cc([N+](=O)[O-])ccc3n3c2cc(-c2ccccc2)[n+]3C)cc1`, the TGI in the assay on BT-549 breast was determined as 13 µM; in the assay on CAKI-1 renal it was 23.4 µM; with HL-60(TB) leukemia, 1.72 µM; in the assay on IGROV1 ovarian it was 2.29 µM; in the assay with MALME-3M melanoma, 1.18 µM; in the assay with MDA-MB-435 it was 1.84 µM. In addition, the TGI with NCI-H522 lung is 1.9 µM; with SK-MEL-2 melanoma, 1.68 µM; in the assay on SK-MEL-28 melanoma, 3.09 µM; with UACC-62 melanoma it was 1.87 µM.

For `NC(N)=NCC(N)C(=O)O` (stereo not given), the TGI with BT-549 breast, with CAKI-1 renal, in the assay on HL-60(TB) leukemia, in the assay with IGROV1 ovarian, in the assay with MALME-3M melanoma and in the assay with MDA-MB-435 was greater than 100 µM throughout. Further, the TGI in the assay with NCI-H522 lung, in the assay with SK-MEL-2 melanoma, in the assay with SK-MEL-28 melanoma and with UACC-62 melanoma was greater than 100 µM throughout.

On to `CC(=O)O[C@H]1CC[C@H]2[C@@H]3CCC(C(C)=O)[C@H](C(=O)O)[C@H]3CC[C@]12C` (stereo not given in full), for which the TGI with BT-549 breast, with CAKI-1 renal, in the assay on HL-60(TB) leukemia, with IGROV1 ovarian, in the assay on MALME-3M melanoma and with MDA-MB-435 was greater than 100 µM throughout. The TGI in the assay on NCI-H522 lung, in the assay with SK-MEL-2 melanoma, in the assay with SK-MEL-28 melanoma and in the assay on UACC-62 melanoma was greater than 100 µM throughout.

On to `CN(C)CCn1nc(N)c2nc3cc(C(F)(F)F)ccc3nc21`, for which the TGI in the assay with BT-549 breast, in the assay on CAKI-1 renal, in the assay with HL-60(TB) leukemia, in the assay on IGROV1 ovarian, with MALME-3M melanoma and in the assay on MDA-MB-435 was greater than 100 µM throughout. The TGI in the assay with NCI-H522 lung, with SK-MEL-2 melanoma, with SK-MEL-28 melanoma and with UACC-62 melanoma was greater than 100 µM in each case.

Turning to `COc1ccc(C[C@@H]2OC3(C=CC(=O)C=C3)O[C@H]2Cc2ccc(OC)cc2)cc1`, the TGI was 0.505 µM in the assay on BT-549 breast; 1.38 µM with CAKI-1 renal; 5.04 µM in the assay with HL-60(TB) leukemia; 1.16 µM with IGROV1 ovarian; 4.22 µM in the assay on MALME-3M melanoma; 3.5 µM with MDA-MB-435. Also, the TGI came to 0.33 µM in the assay on NCI-H522 lung, 3.41 µM in the assay on SK-MEL-2 melanoma, 3.13 µM in the assay on SK-MEL-28 melanoma and 3.7 µM with UACC-62 melanoma.

For `COc1ccc2[nH]c(O)c(/C=c3/cc4c(c(-c5ccc(F)cc5)n3)=Nc3ccccc3-4)c2c1`, the GI50 with BT-549 breast is 1.8 µM; with CAKI-1 renal, 18.2 µM; with HL-60(TB) leukemia, 9.2 µM; in the assay on IGROV1 ovarian, 19.6 µM; in the assay on MALME-3M melanoma it was 2.4 µM; with MDA-MB-435, 2.05 µM. In addition, the GI50 in the assay on NCI-H522 lung is 1.86 µM; in the assay on SK-MEL-2 melanoma, 12.6 µM; with SK-MEL-28 melanoma it was 1.92 µM; in the assay with UACC-62 melanoma, 1.54 µM. Also, the TGI in the assay with BT-549 breast is 3.57 µM; with CAKI-1 renal, 36.8 µM; in the assay with HL-60(TB) leukemia it was greater than 100 µM; in the assay with IGROV1 ovarian, 48.8 µM; in the assay with MALME-3M melanoma, 4.6 µM; in the assay with MDA-MB-435, 6.34 µM. Also, the TGI turned out to be 5.19 µM with NCI-H522 lung, 30.7 µM with SK-MEL-2 melanoma, 4.58 µM with SK-MEL-28 melanoma and 3.2 µM with UACC-62 melanoma.

In the case of `C=C1c2nc3ccccc3n2C=C(c2ccc(OC)cc2)N1c1ccc(OCCN2CCOCC2)cc1`, the TGI in the assay on BT-549 breast is greater than 100 µM; with CAKI-1 renal, greater than 100 µM; in the assay on HL-60(TB) leukemia it was greater than 34.8 µM; in the assay on IGROV1 ovarian, greater than 100 µM; in the assay with MALME-3M melanoma it was 27.6 µM; in the assay with MDA-MB-435 it was greater than 100 µM. For the same compound, the TGI in the assay on NCI-H522 lung was 3.63 µM; with SK-MEL-2 melanoma it was greater than 52.2 µM; in the assay on SK-MEL-28 melanoma, greater than 100 µM; with UACC-62 melanoma, greater than 100 µM.

`O=[N+]([O-])c1ccc2ncccc2c1CCc1c([N+](=O)[O-])ccc2ncccc12`: the TGI in the assay with BT-549 breast, with CAKI-1 renal, in the assay with HL-60(TB) leukemia, in the assay with IGROV1 ovarian, in the assay with MALME-3M melanoma and in the assay with MDA-MB-435 was greater than 100 µM each time. For the same compound, the TGI with NCI-H522 lung, with SK-MEL-2 melanoma, with SK-MEL-28 melanoma and in the assay on UACC-62 melanoma was greater than 100 µM throughout.

As to `Brc1cccc[n+]1-c1ccc2cc(-[n+]3ccccc3Br)ccc2c1`, the TGI was greater than 100 µM in the assay with BT-549 breast; greater than 100 µM in the assay on CAKI-1 renal; greater than 100 µM in the assay with HL-60(TB) leukemia; 28 µM in the assay on IGROV1 ovarian; 72.7 µM in the assay with MALME-3M melanoma; greater than 100 µM with MDA-MB-435. Also, the TGI with NCI-H522 lung, with SK-MEL-2 melanoma, in the assay on SK-MEL-28 melanoma and with UACC-62 melanoma was greater than 100 µM in each case.
